Test results taken from publication PMC6910946, “Multiple roles of Bet v 1 ligands in allergen stabilization and modulation of endosomal protease activity” (Allergy, 2019).

What was measured:
[1] = system: human monocyte‐derived dendritic cells (moDCs); test: Activation and cytokine secretion of human moDCs; assay type: cell-based; settings: Bet v 1 in complex with ligand, 24 h, no LPS co-stimulation
Procedure: (§1) The ability of ligand‐loaded Bet_v_1 to induce IgE‐antigen cross‐linking and basophil degranulation was assessed by mediator‐release assays using rat basophil (RBL‐2H3) cells, transfected with the human high‐affinity IgE receptor (FcεRI), as previously described.2, 24 In vitro uptake of labeled Bet_v_1 was performed using CD11c^+ murine bone marrow–derived dendritic cells (BMDCs). The maturation of human monocyte‐derived dendritic cells (moDCs) was analyzed as previously described.2 T‐cell proliferation assays using CD4^+ T‐cell hybridomas were performed as previously described.17 A detailed description of the in vitro assays is available (Appendix [Link], [Link]).
Immature moDCs from PBMCs of either healthy/non-atopic donors (n=5) or atopic patients (n=7) were isolated and cultured as described elsewhere.^6 Cell viability using the Aqua® dye (Invitrogen, Carlsbad, CA, USA), expression of CD1a (eBioscience, Inc., San Diego, CA, USA) and loss of CD14 (BD Biosciences) expression were analyzed by flow cytometry on a Navios flow cytometer (Beckman Coulter, Brea, CA, USA). Cells (1x10^6 cells/ml) were stimulated for 24 hours with 1 µg/ml of Bet v 1 either alone or in complex with one of the three ligands (DOC, PPE1 or Q3OS). As a control, unstimulated moDCs and the individual ligands without Bet v 1 were used at the same concentrations. The cell supernatant was frozen for the analysis of cytokine secretion. Of note, no LPS co-stimulation was induced. The following maturation markers were investigated: CD40 (eBioscience), HLA-DR, CD80, CD83 and CD86 (BD Biosciences). Cytokine expression of CCL17, IL-1β, IL-10 (BD Biosciences), TNFα and IL-6 (eBioscience) was determined by ELISA. Statistical analysis was performed using one-way ANOVA with a Bonferroni post-test to compare all groups. The study was approved by the ethics committee of the medical faculty of Technical University of Munich (54/17 S).

[2] = biological target: T1, Bet v 1 / human cathepsin S (Betula pendula, UniProt P15494); test: Bet v 1 in vitro proteolytic degradation assay with cathepsin S; assay type: biochemical; settings: for processing (degradation) of Bet v 1 by cathepsin S: Bet v 1 20 µM, ligand 100 µM, cathepsin S 1 µM, pH 5.0, 0-24 h, SDS-PAGE
T1 construct: made in house
T1 sequence (P15494 2-160 limits assumed): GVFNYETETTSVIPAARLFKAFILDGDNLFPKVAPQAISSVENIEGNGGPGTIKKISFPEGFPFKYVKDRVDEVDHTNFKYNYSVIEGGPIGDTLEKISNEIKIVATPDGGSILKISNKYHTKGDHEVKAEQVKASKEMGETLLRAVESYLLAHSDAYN
Procedure: (§2) The endolysosomal degradation assay was performed with ligand‐bound (either DOC, PPE1, or Q3OS in 10× molar excess) and Bet_v_1 without ligands (apo‐Bet_v_1) as previously described.21 Recombinant human cathepsin S and human legumain were used in proteolytic degradation assays. Experimental details are described in the Appendix [Link], [Link].
(§3) Recombinant human cathepsin S and human legumain were heterologously expressed and purified as described previously.^9,10 Bet v 1 (20 µM) was incubated with ligand (100 µM) in digestion buffer (0.1 M sodium acetate, pH 5.0, 0.1 M sodium chloride, 5 mM EDTA, and 2 mM DTT) at room temperature prior to the addition of cathepsin S (1 µM) or legumain (2 µM). […] At each time point, the reaction was halted by the addition of E64 (for cathepsin S) or YVAD-CMK (for legumain) at a final concentration of 50 µM, and analyzed by SDS-PAGE. Control reactions without the addition of protease were performed. The generated peptides were analyzed using mass spectrometry.

[3] = system: rat basophil (RBL‐2H3) cells transfected with the human high‐affinity IgE receptor (FcεRI); test: Mediator release assay (IgE cross-linking, basophil degranulation); assay type: cell-based; settings: sera of six birch pollen allergic subjects
Procedure: as §1
A mediator-release assay was performed to assess the capacity of ligand-loaded Bet v 1 to induce IgE-antigen-crosslinking and basophil degranulation. In this respect, rat basophil (RBL-2H3) cells, transfected with the human high-affinity IgE receptor (FcεRI) were passively sensitized with sera of six subjects allergic to birch pollen (1:10), and used as previously described.^4 For cell-stimulation, Bet v 1 was used at 10-fold dilutions from 1 µg/ml to 0.01 pg/ml. Toxicity of ligands on RBL-2H3 was determined by cell viability assay using MTT (3-(4,5-Dimethylthiazol-2-yl)-2,5-Diphenyltetrazolium Bromide) from Sigma-Aldrich, Inc. (St. Louis, MO, USA). Results were expressed as percentage of total enzyme release of cells lysed with Triton X-100, and the half maximal release (in ng) was determined. Statistics were calculated with a repeated ANOVA followed by a Dunnett post-hoc test of logarithmically transformed half maximal release values (not significant, ns P > 0.05, *P < 0.05, **P < 0.01, and ***P < 0.001).

[4] = biological target: T2, Bet v 1 / human legumain (Betula pendula, UniProt P15494); test: Bet v 1 in vitro proteolytic degradation assay with legumain; assay type: biochemical
T2 construct: made in house
T2 sequence (P15494 2-160 limits assumed): T1 sequence (P15494 2-160 limits assumed)
Procedure: as §2, §3

[5] = system: LPS‐stimulated human DCs; design: method as in PMID 19454659, PMID 17451798; settings: cited from earlier work
[6] = biological target: T3, papain (Carica papaya, UniProt P00784); test: Enzymatic activity assay, fluorogenic substrate Z-FR-AMC; assay type: biochemical; settings: PPE1 5 µmol/L, 15 min (Figure 4A)
T3 construct: purchased Merck
T3 sequence (P00784 134-345): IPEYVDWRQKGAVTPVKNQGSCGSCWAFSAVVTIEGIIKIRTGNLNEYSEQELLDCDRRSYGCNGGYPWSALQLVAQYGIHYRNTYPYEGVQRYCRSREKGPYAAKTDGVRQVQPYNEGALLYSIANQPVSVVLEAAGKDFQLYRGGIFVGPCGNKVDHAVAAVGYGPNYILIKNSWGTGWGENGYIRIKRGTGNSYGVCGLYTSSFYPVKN
Procedure: (§4) To evaluate the influence of Bet_v_1 ligands on cathepsin S and legumain activities, 10 nmol/L of protease was incubated with 100 µmol/L of ligand (unless otherwise stated) and 50 µmol/L of fluorogenic substrate in digestion buffer (0.1 mol/L sodium acetate pH 5.0, 0.1 mol/L sodium chloride, 5 mmol/L EDTA, and 2 mmol/L DTT), as described in the Appendix [Link], [Link]. The effect of birch pollen extract (BPE) (20‐200 µg/mL) on the cathepsin S and legumain activities was assessed in parallel. The inhibitory effect of PPE1 was assessed by replacing DTT with 0.5 mmol/L TCEP. Activities of recombinant rat cathepsin B (provided by Dr Lukas Mach) and papain (Merck) at 10 nmol/L were assayed using Z‐FR‐AMC (Bachem) as a fluorogenic substrate.

[7] = biological target: T4, recombinant rat cathepsin B (Rattus norvegicus, UniProt P00787); test: as above; assay type: biochemical; settings: PPE1 5 µmol/L, 15 min (Figure 4A)
T4 construct: gift of Dr Lukas Mach
T4 sequence (P00787 80-339): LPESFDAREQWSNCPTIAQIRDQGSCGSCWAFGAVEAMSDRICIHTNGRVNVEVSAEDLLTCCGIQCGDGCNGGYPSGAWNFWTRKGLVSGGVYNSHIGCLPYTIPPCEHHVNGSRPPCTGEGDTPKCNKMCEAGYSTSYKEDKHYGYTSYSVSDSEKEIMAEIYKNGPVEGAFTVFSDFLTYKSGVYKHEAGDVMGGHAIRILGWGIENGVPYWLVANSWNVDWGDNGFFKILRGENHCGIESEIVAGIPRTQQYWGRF
Procedure: as §4

[8] = relative abundance of peptides by mass spectrometry

Row | SMILES | maturation marker expression and Th polarization‐associated cytokines [1] | processing (degradation) of Bet v 1 by cathepsin S [2] | IgE cross‐linking by Bet v 1‐complexes (RBL assay) [3] | processing (degradation) of Bet v 1 by legumain ([4]; Bet v 1 20 µM, ligand 100 µM, legumain 2 µM, pH 5.0, 0-24 h, SDS-PAGE) | production of IL‐12p70 [5] | papain fluorogenic activity [6] | rat cathepsin B fluorogenic activity [7] | Bet v 1 cleavage site frequency with cathepsin S [2, 8] | Bet v 1 cleavage site frequency with legumain [4, 8]
1 | C[C@H](CCC(=O)O)[C@H]1CC[C@H]2[C@@H]3CC[C@@H]4C[C@H](O)CC[C@]4(C)[C@H]3C[C@H](O)[C@]12C [DOC, sodium deoxycholate, reference compound] | None of the above described readouts was influenced | strongly retarded | None of the above described readouts was influenced | strongly retarded | – | – | – | – | –
2 | CCC1C(=O)CC(O)C1/C=C/C(O)CCCCCCCC(=O)O (centres unmarked) [PPE1, E1 phytoprostanes] | None of the above described readouts was influenced | strongly retarded | None of the above described readouts was influenced | – | inhibits the production of IL‐12p70 | inhibits | inhibits | preferential cleavage was observed after Phe20, Lys21, and in the C‐terminal region | cleavage frequency after Asn120 and Asp157 strongly increased
3 | O=c1c(O[C@@H]2O[C@H](CO)[C@@H](O)[C@H](O)[C@H]2O[C@@H]2O[C@H](CO)[C@@H](O)[C@H](O)[C@H]2O)c(-c2ccc(O)c(O)c2)oc2cc(O)cc(O)c12 [Q3OS, quercetin 3‐O‐sophoroside] | None of the above described readouts was influenced | – | None of the above described readouts was influenced | – | – | – | – | – | –
